Test results published in patent publication US6541483B2, “Acridone-derived compounds useful as antineoplastic and antiretroviral agents” (The United States of America as represented by the …, priority 1996, dated 2003).
Like-named read-outs stand apart in the source and are kept apart here.

Experiments:
[1] = biological target: HIV-1 reverse transcriptase (Human immunodeficiency virus type 1 group M subtype B, UniProt P04585); experiment: reverse transcriptase enzyme activity; format: biochemical
Description: (§1) Based on the findings thus far our efforts have focused on biological assays of the temacrazine congener.

[2] = tested on: HIV-1 proviral DNA formation (LTR/gag); experiment: time course assay of proviral DNA formation; format: cell-based; conditions: amplified LTR/gag region
[3] = tested on: HIV-1ADA; experiment: anti-HIV-1 activity in monocyte/macrophage cultures; format: cell-based; conditions: Human immunodeficiency virus 1; HIV-1ADA, human monocyte/macrophage cultures; read-out: Mo/Mφ EC50
Description: (§2) The antiviral properties of the WMC series of compounds were evaluated. First, all compounds were tested for their ability to inhibit HIV-1 replication in cell culture using the XTT cytoprotection assay. This assay measures the concentration-dependent capacity of compounds to protect CEM-SS cells from the cytopathic effects of HIV-1. […] Thus, temacrazine was the most efficacious compound in the XTT cytoprotection assay. This conclusion was also reached when the compounds were tested for anti-HIV-1 activity against HIV-1ADA in human monocyte/macrophage cultures (Table 1).

[4] = tested on: HIV-1RF; experiment: nude mouse hollow fiber model of HIV-1 replication; format: in vivo, nude mice
Description: The novel mechanism of action of temacrazine and its broad range of activity against HIV-1 and its high therapeutic indexes led us to assess its in vivo and anti-viral properties in a nude mouse hollow fiber model of HIV-1 replication. Briefly, CEM-SS cells are infected with HIV-1RF and placed into hollow fibers and implanted intraperitoneal or subcutaneously into nude mice. […] Similarly, mice are being treated by oral and intravenous administration of temacrazine. Peritoneal washes and serum samples were collected and p24 expression determined by antigen capture. Intraperitoneal administration of temacrazine reduced the amount of detectable p24 in peritoneal washes by 5 to 10 fold independently of the dosage schedule. […] Thus, temacrazine reduces HIV-1 replication in vivo.

[5] = tested on: HIV-1 virus; experiment: direct treatment of HIV-1 virus, infection of CEM cells; format: cell-based
Description: As a result of these preliminary data, additional experiments were carried out to establish the antiviral activity in other cell lines, using a variety of protocols. The preliminary experiments in lymphocytes were confirmed using infected macrophages. Much more extensive experiments were carried out in HIV-1-infected CEM SS leukemia cells. […] However, two derivatives were found which had low antileukemic activity while maintaining high antiviral activity. […] This gives a therapeutic index of more than 3 orders of magnitude. The corresponding therapeutic index for WMC50 is about 100-200, which is quite acceptable. Additional experiments were carried out on WMC-70. […] Further, WMC-70 appears to affect post-transcription events in the virus. […] While the inhibition of integration appears to be the principal mechanism by which this compound exerts its antiviral activity, there are perhaps other mechanisms which are also involved in the therapeutic action of this drug, and by extension, of other antiviral drugs of this class.

[6] = tested on: human monocyte/macrophage cultures; experiment: toxicity in monocyte/macrophage cultures; format: cell-based; conditions: human monocyte/macrophage cultures; read-out: Mo/Mφ IC50
Description: as §2

[7] = biological target: T1, HIV-1 protease (Human immunodeficiency virus type 1 group M subtype B, UniProt P04585); experiment: Pr55gag processing assay with recombinant protease; format: biochemical; conditions: enzyme pretreated one hour at 37° C.
Description: However, to insure that the HPLC-based assay (used in Table 1) was providing accurate findings, the action of temacrazine in the Gag processing assay was evaluated. In this assay, purified recombinant HIV-1 protease enzyme was pretreated with the test reagent for one hour at 37° C., and then exposed the recombinant Pr55^gag precursor polyprotein to the treated enzyme.

[8] = biological target: T1, HIV-1 protease; experiment: protease activity, HPLC-based assay; format: biochemical
[9] = biological target: HIV-1 integrase (Human immunodeficiency virus type 1 group M subtype B, UniProt P04585); experiment: 3'-processing and strand transfer with recombinant integrase; format: biochemical; set-up: in vitro assay using purified oligomers and recombinant HIV-1 integrase
Description: as §1

[10] = tested on: U1 cells; experiment: viability of U1 cells; format: cell-based; conditions: 48 h
Description: As a model of the late phase events during the HIV-1 replication cycle, U1 cells were used that are latently infected with two copies of HIV-1 proviral DNA. The high level expression of virus production in these U1 cells can be stimulated by certain factors, such as TNF-α. U1 cells were stimulated with TNF-α for 24 hours, after which were added various concentrations of temacrazine, and the cultures were allowed to incubate for 48 additional hours. At that time, the cells were evaluated for viability and for their content of viral protein synthesis and processing, while the cell-free supernatant was evaluated for viral p24 content and for the infectious titer of released virions. […] Cell viability was diminished above 30 nM with these U1 cells.

[11] = tested on: HIV-1 LTR-directed chloramphenicol acetyltransferase (CAT) activity; experiment: LTR-directed CAT activity in BF-24 cells; format: cell-based; conditions: 24 h, temacrazine up to 5 μM
Description: Initiation and regulation of HIV-1 transcription requires a complex series of interactions with cellular transcription factors, such as NFkB, SP-1 and AP-1, and the participation of cellular factors in the transcriptional complex. In addition, the post-integrative model used here requires TNFα stimulated U1 and ACH-2 cells, this model requires not only the participation of the NFkB transcriptional complex, and also components of the TNFα signaling pathway. In order to rule out that temacrazine was non-specifically effecting transcription or down-regulating replication by interfering with the TNFα signal pathway, LTR-directed chloramphenicol acetyltransferase (CAT) activity was measured in BF-24 cells. BF-24 cells are derived from the THP-1 monocytic cell line and carry a stably integrated CAT gene under the transcriptional control of the HIV-1 LTR (S. Schwartz, et al., Proc. Natl. Acad. Sci. USA 86:7200 (1989); B. K. Felber, et al., Science 239:184 (1988)). The LTR in this monocytic cell line is inducible by IL-6, PMA and TNFα, and produces enzymatically active chloramphenicol transferase (“CAT”). […]
CAT activity was determined using a fluorescent Bodipy conjugated chloramphenicol after 18 h of reaction with 50 μg of protein extract containing Acetyl CoA.

[12] = tested on: attachment of HIV-1RF to CEM-SS cells; experiment: attachment of virions to CEM-SS cells (cell-bound p24 ELISA); format: cell-based; conditions: Human immunodeficiency virus 1, CEM-SS
Description: as §1

[13] = 8.5 mg/kg q8h intraperitoneally
[14] = 12.5 mg/kg q12h intraperitoneally
[15] = 25 mg/kg q24h intraperitoneally

SMILES: O=c1c2ccccc2n2nnc3ccc(NCCCN4CCN(CCCNc5ccc6nnn7c8ccccc8c(=O)c5c67)CC4)c1c32 [temacrazine]
- IC50 [1]: > 100 µM
- inhibition of reverse transcriptase [1]: did not inhibit
- IC50 ([1]; read-out: I50 RT Enzyme Activity, rAdT Template/primer): > 100 µM
- IC50 ([1]; read-out: I50 RT Enzyme Activity, rCdG Template/primer): > 100 µM
- formation of proviral DNA during reverse transcription [2]: did not prevent the formation of proviral DNA
- EC50 [3]: 0.01 µM
- Peritoneal Wash p24, mean [4, 13]: 460 pg p24
- Serum p24, mean [4, 13]: 1790 pg p24
- Peritoneal Wash p24, mean [4, 14]: 190 pg p24
- Serum p24, mean [4, 14]: 1863 pg p24
- Peritoneal Wash p24, mean [4, 15]: 593 pg p24
- Serum p24, mean [4, 15]: 2030 pg p24
- p24 in the serum ([4]; intraperitoneal, total 25 mg/kg per day for 6 days): reduced the amount of p24 in the serum
- reduction of detectable p24 in peritoneal washes ([4]; intraperitoneal, total 25 mg/kg per day for 6 days, any schedule): 5 to 10 fold
- infectivity of drug-treated HIV-1 virus [5]: appeared to prevent its ability to infect CEM cells
- IC50 [6]: 10 µM
- inhibition of protease in Gag processing assay [7]: had no inhibitory effect
- inhibition of HIV protease [8]: did not inhibit
- IC50 [9]: 0.01 to 0.1 µM
- EC50 ([9]; read-out: EC50, 3'-processing and strand transfer activity, purified oligomers, recombinant HIV-1 integrase): 0.01 to 0.1 µM
- concentration above which cell viability was diminished [10]: above 30 nM
- CAT induction by TNFα [11]: did not significantly alter CAT induction
- IC50 ([12]; Table 1, read-out: Attachment ID50): > 100 µM
- IC50 ([12]; Table 1A, read-out: I50 Attachment): > 100 µM
